Assay results reported in US9580513B2, “VHZ for diagnosis and treatment of cancers” (AGENCY FOR SCIENCE, TECHNOLOGY AND RESEARCH (A*STAR), priority 2008, dated 2017).

T1: VHZ-GST (Homo sapiens, UniProt Q9BVJ7)
T1 construct: made in house
T1 sequence (Q9BVJ7 1-150): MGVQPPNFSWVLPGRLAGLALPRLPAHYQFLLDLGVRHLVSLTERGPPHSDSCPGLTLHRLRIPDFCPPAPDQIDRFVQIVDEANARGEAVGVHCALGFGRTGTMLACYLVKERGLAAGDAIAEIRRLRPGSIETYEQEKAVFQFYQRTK

B1: VHZ human/mouse Chimeric mAb (Clone #209): mouse variable regions of hybridoma clone #209 (SEQ ID NO: 4 and 5) joined with human IgG1 constant region (antibody, listed as Mus musculus, V domains shown)
VH: LVDMDSRLNLVFLVLILKGVQCDVQLVESGGGLVQPGGSRKLSCAASGFTFSSFGMHWVRQAPEKGLEWVAYISSGSSTIYYADTVKGRFTISRDNPKNTLFLQMTSLRSEDTAMYYCARWQTARATRGYAMDYWGQGTSVTVSS
VL: VMTQSHKFMSTSVGDRVSITCKASQDVNTAVAWYQQKPGQSPKLLIYSASYRFTGVPDLFTGSGSGTDFTFTINSVQAEDLAVYYCQQHYSSPWTFGGGTKLEIKRADAAPTVSIFHHPVSLG
modifications: human IgG1 constant regions lacking entries

How the values were obtained:
VHZ-GST = biological target: T1, VHZ-GST; experiment: Tyrosine phosphatase assay (ENZCHEK kit, fluorogenic substrate); type: biochemical; details: 10 μM sodium orthovanadate added to the reaction; 0.675 picomoles VHZ-GST
Protocol: FIG. 3A. We test each protein (0.675 picomoles) for its PTPase activity.
The ENZCHEK™ kit (Invitrogen, R22065) is used. As per the manufacturer's protocol, the fluorogenic substrate is reconstituted in the assay wells with buffer; the desired potential PTPases (0.675 picomole for each protein: VHZ-GST, VHZ-GST+Phosphatase inhibitor, VHZ(C95S)-GST, and control GST) are added to the wells and incubated 30 min or 90 min respectively. The fluorescence is then quantified using a Gemini XPS microplate spectrofluorometer (Molecular Devices). Fluorescence is measured at 10 minute intervals at the excitation and emission wavelengths of 358 and 452 nm, respectively. The phosphatase inhibitor sodium orthovanadate (10 μM) is used in the assay as a negative control.
The PTPase activities of VHZ-GST, indicated by increasing blue fluorescence (excitation/emission maxima ˜358/452 nm), are abolished either by mutation of Cys 95 to Ser or by adding phosphatase inhibitor (sodium orthovanadate) into the assay (FIG. 3A, Panel A).

[1] = system: HCT116 colon cancer cells that express VHZ; experiment: Formation of tumours by HCT116 colon cancer cells injected via the tail vein of nude mice; type: in vivo; details: 1×10^6 HCT116 cells via tail vein on day 1; chimeric mAb into tail vein from day 3, then two administrations weekly; compared with PBS (untreated)
Description: FIG. 15B. Either PBS (untreated) or chimeric mAb (treated) is administrated into tail vein starting the first treatment on day 3; followed by two administrations weekly. Experiment periods: Top two animals starting 11 Feb.-2 Apr. 2009 bottom two animals starting 11 Feb.-13 Apr. 2009.
All animal studies have been approved by the Institutional Review Board of the IMCB. We follow strictly rules and policies of the Animal Facility Center of The Agency for Science, Technology and Research (A* STAR), Singapore. Nine-week old nude mice (Jackson Labs, USA) are used.
By western blot we confirm that HCT116 colon cancer cell line is VHZ positive comparing with MDCK cell line. 1×10^6 HCT116 cancer cells were injected into the circulation of nude mice via the tail vein on day 1.
Either PBS (untreated) or chimeric mAb (treated) was administrated into tail vein starting the first treatment on day 3; followed by two administrations weekly. Experiment periods: Top two animals starting 11 Feb.-2 Apr. 2009 bottom two animals starting 11 Feb.-13 Apr. 2009.

Molecule | PTPase activity of VHZ (VHZ-GST) | formation of tumours by HCT116 colon cancer cells [1]
[Na+].[Na+].[Na+].[O]=[V]([O-])([O-])[O-] [sodium orthovanadate] | completely abolished | 
B1 |  | effectively inhibits the formation of tumours
